In US20100160454A1, “ANTIMICROBIAL AGENTS, COMPOSITIONS AND PRODUCTS CONTAINING THE SAME, AND METHODS OF USING THE COMPOSITIONS AND PRODUCTS” (Eastman Chemical Company, priority 2008, published 2010):

Assays:
Assay in all cases: Microbiological challenge testing in BPW broth, graded subculture counts
Type in all cases: cell-based
[1] = test system: Streptococcus mutans ATCC 35668
Summary of the method: (§1)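 Challenge substrates of BPW plus 1% dextrose containing the test material (w/v) or broth alone were inoculated to 10^5–10^6 CFU/mL. Bacteria had been precultured in dextrose TSB at 35 °C for at least 96 h. CFU/mL came from plate count × dilution factor on PCA after ≥48 h at 35 °C.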

[2] = test system: Escherichia coli ATCC 25922; conditions: E. Coli
Summary of the method: as §1

[3] = test system: Candida albicans Wild type; conditions: C. albicans
Protocol: The microorganisms in the table below were used in challenge tests. They were either ATCC (American Type Culture Collection) or “wild type” as indicated. Wild type organisms were problematic organisms previously isolated from chemical products.
All of the microorganisms were grown in Tryptose Soy Broth (TSB), DIFCO™ available from Becton, Dickinson and Company, containing 1% dextrose. Candida albicans and Aspergillus niger, were incubated at 22° C.+/−2° C. for at least 96 hours. All bacteria were incubated at 35° C.+/−2° C. in a humidified incubator for at least 96 hours.
Candida albicans and Aspergillus niger were also grown on Sabouraud Dextrose Agar (SABD) at 22° C. for 7 to 14 days or until full sporulation was achieved.
The following procedure was followed to determine the amount of each challenge material (inoculum broth) needed to produce a 10^8 CFU/mL challenge, which is equivalent to a final test-sample microbial concentration of 10^5 to 10^6 CFU/mL (CFU=colony forming units).
Using a sterile pipette, 1 mL of the growth from each TSB culture was transferred into tubes of 9 mL buffered water (pH 7.2 phosphate buffer) and mixed thoroughly. This was repeated to make serial 1:10 dilutions. Then, 0.1 mL of each sample and dilution was inoculated onto agar plates to produce the equivalent of a further 1:10 dilution. (C. albicans and A. niger were inoculated onto SABD and bacteria were inoculated onto Plate Count Agar (PCA), DIFCO™ available from Becton, Dickinson and Company.) (The normal volume plated for most samples was 0.1 mL. Some samples that could be very low in micro-organisms (high dilutions) were plated using 0.5 mL of inoculum, in order to produce reproducible counts.) The samples were distributed on the plates using the spread-plate technique. The spread-plate technique is carried out by spreading the sample over the entire plate surface using a sterile spreading rod while rotating the plate with a rotary auto-plater. After the inoculum was absorbed completely by the agar, each plate was inverted and incubated (fungi at 22° C.+/−2° C. and bacteria at 35° C.+/−2° C.).
After incubation for at least 48 hours, colonies that had developed on the agar plates were counted (CFU) and recorded with the corresponding dilution. If counting had to be delayed temporarily, plates were refrigerated, preferably no more than 24 hours, until they could be counted. The number of CFU/mL was determined by multiplying the plate count by the dilution factor of the plate counted.
Turbidity in Nepholemetric Turbidity Units (NTU) was measured for each serial dilution using the HF-Micro 100 Model Turbidimeter. For each microorganism, the plate counts were compared to the turbidity readings.
On the day of challenge, the Candida albicans inoculum broth was poured through nonabsorbent sterile gauze and centrifuged. The […] was then diluted with buffered water (pH 7.2 phosphate buffer) until the desired turbidity was reached. Using a hemocytometer, a determination was made whether the challenge contained the desired concentration. Dilutions were made through 1.0×10^8 and three SABD spread plates were inoculated with 0.1 mL of each dilution. The plates were incubated for at least 48 hours and challenge counts were confirmed.
Control substrates (“broth alone”) were prepared for each microorganism separately in triplicate by adding 13.5 mL of Buffered Peptone Water broth (BPW) containing 1% dextrose to each 20-mL glass tube, then adding 1.5 mL challenge material to produce a final concentration at time zero of 10^5 to 10^6 CFU/mL and a total volume of 15 mL.

Row | SMILES | S. mutans growth grade, 3 day ([1]; 0.5% weight/volume) | S. mutans growth grade, 13 day ([1]; 0.5% weight/volume) | S. mutans growth grade, 30 day ([1]; 0.5% weight/volume) | S. mutans growth grade, 3 day ([1]; 1.25% weight/volume) | S. mutans growth grade, 13 day ([1]; 1.25% weight/volume) | S. mutans growth grade, 30 day ([1]; 1.25% weight/volume) | S. mutans growth grade, 3 day ([1]; 2.5% weight/volume) | S. mutans growth grade, 13 day ([1]; 2.5% weight/volume) | S. mutans growth grade, 30 day ([1]; 2.5% weight/volume) | S. mutans growth grade, 3 day ([1]; 5.0% weight/volume) | S. mutans growth grade, 13 day ([1]; 5.0% weight/volume) | S. mutans growth grade, 30 day ([1]; 5.0% weight/volume) | Grade ([2]; 0.5% (wt/vol), 3 day) | Grade ([2]; 0.5% (wt/vol), 14 day) | Grade ([2]; 0.5% (wt/vol), 30 day) | Grade ([2]; 1.25% (wt/vol), 3 day) | Grade ([2]; 1.25% (wt/vol), 14 day) | Grade ([2]; 1.25% (wt/vol), 30 day) | Grade ([2]; 2.5% (wt/vol), 3 day) | Grade ([2]; 2.5% (wt/vol), 14 day) | also measured
1 | CC1(C)C(O)C(C)(C)C1O (stereo not drawn) [TMCBD, 2,2,4,4-tetramethyl-1,3-cyclobutanediol] | 4 (1000 to 10,000 colonies countable (thus 10,000 CFU/mL to 100,000 CFU/mL)) | 4 (1000 to 10,000 colonies countable (thus 10,000 CFU/mL to 100,000 CFU/mL)) | 4 (1000 to 10,000 colonies countable (thus 10,000 CFU/mL to 100,000 CFU/mL)) | 4 (1000 to 10,000 colonies countable (thus 10,000 CFU/mL to 100,000 CFU/mL)) | 4 (1000 to 10,000 colonies countable (thus 10,000 CFU/mL to 100,000 CFU/mL)) | 4 (1000 to 10,000 colonies countable (thus 10,000 CFU/mL to 100,000 CFU/mL)) | 3 (100 to 1000 colonies (thus 1000 to 10,000 CFU/mL)) | 1 (0 to 51 colonies counted (thus 10 to 510 CFU/mL based on 0.1-mL sample)) | 0 | 0 | 0 | 0 | 5 (More than 10,000 colonies estimated (thus more than 100,000 CFU/mL)) | 5 (More than 10,000 colonies estimated (thus more than 100,000 CFU/mL)) | 5 (More than 10,000 colonies estimated (thus more than 100,000 CFU/mL)) | 4 (1000 to 10,000 colonies countable (thus 10,000 CFU/mL to 100,000 CFU/mL)) | 4 (1000 to 10,000 colonies countable (thus 10,000 CFU/mL to 100,000 CFU/mL)) | 4 (1000 to 10,000 colonies countable (thus 10,000 CFU/mL to 100,000 CFU/mL)) | 4 (1000 to 10,000 colonies countable (thus 10,000 CFU/mL to 100,000 CFU/mL)) | 4 (1000 to 10,000 colonies countable (thus 10,000 CFU/mL to 100,000 CFU/mL)) | Grade ([2]; 2.5% (wt/vol), 30 day): 4 (1000 to 10,000 colonies countable (thus 10,000 CFU/mL to 100,000 CFU/mL)); Grade ([2]; 5.0% (wt/vol), 3 day): 0; Grade ([2]; 5.0% (wt/vol), 14 day): 0; Grade ([2]; 5.0% (wt/vol), 30 day): 0; Grade ([3]; 0.5% (wt/vol), 3 day): 4 (1000 to 10,000 colonies countable (thus 10,000 CFU/mL to 100,000 CFU/mL)); Grade ([3]; 0.5% (wt/vol), 14 day): 4 (1000 to 10,000 colonies countable (thus 10,000 CFU/mL to 100,000 CFU/mL)); Grade ([3]; 0.5% (wt/vol), 30 day): 4 (1000 to 10,000 colonies countable (thus 10,000 CFU/mL to 100,000 CFU/mL)); Grade ([3]; 1.25% (wt/vol), 3 day): 3 (100 to 1000 colonies (thus 1000 to 10,000 CFU/mL)); Grade ([3]; 1.25% (wt/vol), 14 day): 4 (1000 to 10,000 colonies countable (thus 10,000 CFU/mL to 100,000 CFU/mL)); Grade ([3]; 1.25% (wt/vol), 30 day): 4 (1000 to 10,000 colonies countable (thus 10,000 CFU/mL to 100,000 CFU/mL)); Grade ([3]; 2.5% (wt/vol), 3 day): 3 (100 to 1000 colonies (thus 1000 to 10,000 CFU/mL)); Grade ([3]; 2.5% (wt/vol), 14 day): 2 (52 to 100 colonies counted (thus 520 to 1000 CFU/mL)); Grade ([3]; 2.5% (wt/vol), 30 day): 2 (52 to 100 colonies counted (thus 520 to 1000 CFU/mL)); Grade ([3]; 5.0% (wt/vol), 3 day): 2 (52 to 100 colonies counted (thus 520 to 1000 CFU/mL)); Grade ([3]; 5.0% (wt/vol), 14 day): 0; Grade ([3]; 5.0% (wt/vol), 30 day): 0
2 | CC(O)CO (stereo not drawn) [PG, propylene glycol] | 5 (More than 10,000 colonies estimated (thus more than 100,000 CFU/mL)) | 5 (More than 10,000 colonies estimated (thus more than 100,000 CFU/mL)) | 5 (More than 10,000 colonies estimated (thus more than 100,000 CFU/mL)) | 4 (1000 to 10,000 colonies countable (thus 10,000 CFU/mL to 100,000 CFU/mL)) | 4 (1000 to 10,000 colonies countable (thus 10,000 CFU/mL to 100,000 CFU/mL)) | 4 (1000 to 10,000 colonies countable (thus 10,000 CFU/mL to 100,000 CFU/mL)) | 4 (1000 to 10,000 colonies countable (thus 10,000 CFU/mL to 100,000 CFU/mL)) | 4 (1000 to 10,000 colonies countable (thus 10,000 CFU/mL to 100,000 CFU/mL)) | 4 (1000 to 10,000 colonies countable (thus 10,000 CFU/mL to 100,000 CFU/mL)) | 4 (1000 to 10,000 colonies countable (thus 10,000 CFU/mL to 100,000 CFU/mL)) | 4 (1000 to 10,000 colonies countable (thus 10,000 CFU/mL to 100,000 CFU/mL)) | 4 (1000 to 10,000 colonies countable (thus 10,000 CFU/mL to 100,000 CFU/mL)) | 5 (More than 10,000 colonies estimated (thus more than 100,000 CFU/mL)) | 5 (More than 10,000 colonies estimated (thus more than 100,000 CFU/mL)) | 5 (More than 10,000 colonies estimated (thus more than 100,000 CFU/mL)) | 5 (More than 10,000 colonies estimated (thus more than 100,000 CFU/mL)) | 4 (1000 to 10,000 colonies countable (thus 10,000 CFU/mL to 100,000 CFU/mL)) | 4 (1000 to 10,000 colonies countable (thus 10,000 CFU/mL to 100,000 CFU/mL)) | 5 (More than 10,000 colonies estimated (thus more than 100,000 CFU/mL)) | 4 (1000 to 10,000 colonies countable (thus 10,000 CFU/mL to 100,000 CFU/mL)) | Grade ([2]; 2.5% (wt/vol), 30 day): 4 (1000 to 10,000 colonies countable (thus 10,000 CFU/mL to 100,000 CFU/mL)); Grade ([2]; 5.0% (wt/vol), 3 day): 4 (1000 to 10,000 colonies countable (thus 10,000 CFU/mL to 100,000 CFU/mL)); Grade ([2]; 5.0% (wt/vol), 14 day): 4 (1000 to 10,000 colonies countable (thus 10,000 CFU/mL to 100,000 CFU/mL)); Grade ([2]; 5.0% (wt/vol), 30 day): 4 (1000 to 10,000 colonies countable (thus 10,000 CFU/mL to 100,000 CFU/mL)); Grade ([3]; 0.5% (wt/vol), 3 day): 5 (More than 10,000 colonies estimated (thus more than 100,000 CFU/mL)); Grade ([3]; 0.5% (wt/vol), 14 day): 5 (More than 10,000 colonies estimated (thus more than 100,000 CFU/mL)); Grade ([3]; 0.5% (wt/vol), 30 day): 5 (More than 10,000 colonies estimated (thus more than 100,000 CFU/mL)); Grade ([3]; 1.25% (wt/vol), 3 day): 5 (More than 10,000 colonies estimated (thus more than 100,000 CFU/mL)); Grade ([3]; 1.25% (wt/vol), 14 day): 5 (More than 10,000 colonies estimated (thus more than 100,000 CFU/mL)); Grade ([3]; 1.25% (wt/vol), 30 day): 5 (More than 10,000 colonies estimated (thus more than 100,000 CFU/mL)); Grade ([3]; 2.5% (wt/vol), 3 day): 4 (1000 to 10,000 colonies countable (thus 10,000 CFU/mL to 100,000 CFU/mL)); Grade ([3]; 2.5% (wt/vol), 14 day): 4 (1000 to 10,000 colonies countable (thus 10,000 CFU/mL to 100,000 CFU/mL)); Grade ([3]; 2.5% (wt/vol), 30 day): 4 (1000 to 10,000 colonies countable (thus 10,000 CFU/mL to 100,000 CFU/mL)); Grade ([3]; 5.0% (wt/vol), 3 day): 3 (100 to 1000 colonies (thus 1000 to 10,000 CFU/mL)); Grade ([3]; 5.0% (wt/vol), 14 day): 4 (1000 to 10,000 colonies countable (thus 10,000 CFU/mL to 100,000 CFU/mL)); Grade ([3]; 5.0% (wt/vol), 30 day): 4 (1000 to 10,000 colonies countable (thus 10,000 CFU/mL to 100,000 CFU/mL))
